Measured values published in ChEMBL document CHEMBL1201862, “PubChem BioAssay data set” (2004).
Calls of active or inactive are those of the source.

Columns and labels:
[1] = target: Oxytocin receptor (Homo sapiens, UniProt P30559); assay: Fluorescence-based cell-based high throughput dose response assay for agonists of the Oxytocin Receptor (OXTR). [Related pubchem assays: 2435 (Primary screen (OXTR agonists in singlicate)), 434991 (Counterscreen (V1R agonists in triplicate)), 2482 (Summary (OXTR agonists)), 434963 (Confirmation screen (OXTR agonists in triplicate))]; assay type: functional
Oxytocin receptor, sequence (P30559 whole entry): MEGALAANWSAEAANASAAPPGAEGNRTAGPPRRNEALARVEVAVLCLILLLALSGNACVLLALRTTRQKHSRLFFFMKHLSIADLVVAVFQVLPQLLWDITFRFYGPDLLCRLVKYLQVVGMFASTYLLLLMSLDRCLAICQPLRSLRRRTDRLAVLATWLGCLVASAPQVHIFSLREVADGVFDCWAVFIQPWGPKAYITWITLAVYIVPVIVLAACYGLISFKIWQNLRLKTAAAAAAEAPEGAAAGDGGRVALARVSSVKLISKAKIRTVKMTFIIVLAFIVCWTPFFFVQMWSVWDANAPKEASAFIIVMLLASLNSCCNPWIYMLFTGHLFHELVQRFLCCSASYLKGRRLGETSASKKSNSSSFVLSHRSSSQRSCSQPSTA

[2] = target: Vasopressin V1a receptor (Homo sapiens, UniProt P37288); assay: Counterscreen for Oxytocin Receptor (OXTR) agonists: Fluorescence-based cell-based high throughput dose response assay to identify agonists of the vasopressin 1 receptor (V1R). [Related pubchem assays: 2435 (Primary screen (OXTR agonists in singlicate)), 434991 (Counterscreen (V1R agonists in triplicate)), 2482 (Summary (OXTR agonists)) …; assay type: functional
[3] = tested on: BJ; assay: cells; assay type: functional, cell-based; settings: Homo sapiens
[4] = target: T1, SUMO-activating enzyme (Homo sapiens, UniProt Q9UBT2); assay: blockers of SAE1/SAE2–UBC9 SUMO transfer – biochemical, HTRF, uHTS, primary screen (AID 2006); assay type: protein-complex assay
T1 sequence (Q9UBE0 whole entry): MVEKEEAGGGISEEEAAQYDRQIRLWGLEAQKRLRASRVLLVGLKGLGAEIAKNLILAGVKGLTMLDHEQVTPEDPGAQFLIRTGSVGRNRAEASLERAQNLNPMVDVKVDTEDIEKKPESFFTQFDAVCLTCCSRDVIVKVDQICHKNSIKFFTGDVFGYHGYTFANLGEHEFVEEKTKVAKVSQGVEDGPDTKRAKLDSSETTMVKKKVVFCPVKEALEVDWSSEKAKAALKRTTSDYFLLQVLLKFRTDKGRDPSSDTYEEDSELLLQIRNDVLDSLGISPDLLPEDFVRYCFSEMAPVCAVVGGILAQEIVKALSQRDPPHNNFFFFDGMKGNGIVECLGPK
T1 sequence (Q9UBT2 whole entry): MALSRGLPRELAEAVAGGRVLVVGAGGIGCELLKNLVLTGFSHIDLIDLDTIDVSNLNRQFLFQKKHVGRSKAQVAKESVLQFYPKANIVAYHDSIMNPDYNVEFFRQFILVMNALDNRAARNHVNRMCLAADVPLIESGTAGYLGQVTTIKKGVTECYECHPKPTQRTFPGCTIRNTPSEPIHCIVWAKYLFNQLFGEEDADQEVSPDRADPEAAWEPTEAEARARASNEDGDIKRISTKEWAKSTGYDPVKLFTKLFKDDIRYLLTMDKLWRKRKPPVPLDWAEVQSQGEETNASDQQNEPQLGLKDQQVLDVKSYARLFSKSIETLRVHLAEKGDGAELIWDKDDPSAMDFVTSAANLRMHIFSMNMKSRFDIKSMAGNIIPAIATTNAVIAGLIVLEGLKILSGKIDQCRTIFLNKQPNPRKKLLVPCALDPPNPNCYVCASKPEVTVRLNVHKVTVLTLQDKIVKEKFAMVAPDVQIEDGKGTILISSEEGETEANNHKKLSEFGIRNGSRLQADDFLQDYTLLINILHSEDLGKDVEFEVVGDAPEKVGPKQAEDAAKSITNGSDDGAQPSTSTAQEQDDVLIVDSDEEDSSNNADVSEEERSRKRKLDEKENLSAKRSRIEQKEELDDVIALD

[5] = tested on: BJ; assay: BJ-TERT fibroblast viability loss – cell-based, RAS-independent, luminescence, dose response (AID 1933); assay type: functional; settings: Homo sapiens
[6] = DRD fibroblast viability loss – cell-based, non-viral oncogenic, luminescence, dose response (AID 1934); assay type: functional; settings: Homo sapiens
[7] = tested on: BJ; assay: BJ-TERT-LT-ST fibroblast viability loss – cell-based, RAS-independent, luminescence, dose response (AID 1935); assay type: functional; settings: Homo sapiens;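 also: BJ fibroblasts immortalized with TERT plus LT and ST oncogenes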
[8] = target: T1, SUMO-activating enzyme; assay: blockers of UBC9-mediated SUMO conjugation – biochemical, AlphaScreen, SUMOylation inhibitor project, confirmation (AID 2018); assay type: functional
[9] = target: Galanin receptor type 2 (Homo sapiens, UniProt O43603); assay: Dose Response cell-based high-throughput screening assay to identify agonists of galanin receptor 2 (GALR2). [Related pubchem assays: 864 ]; assay type: functional
Galanin receptor type 2, sequence (O43603 whole entry): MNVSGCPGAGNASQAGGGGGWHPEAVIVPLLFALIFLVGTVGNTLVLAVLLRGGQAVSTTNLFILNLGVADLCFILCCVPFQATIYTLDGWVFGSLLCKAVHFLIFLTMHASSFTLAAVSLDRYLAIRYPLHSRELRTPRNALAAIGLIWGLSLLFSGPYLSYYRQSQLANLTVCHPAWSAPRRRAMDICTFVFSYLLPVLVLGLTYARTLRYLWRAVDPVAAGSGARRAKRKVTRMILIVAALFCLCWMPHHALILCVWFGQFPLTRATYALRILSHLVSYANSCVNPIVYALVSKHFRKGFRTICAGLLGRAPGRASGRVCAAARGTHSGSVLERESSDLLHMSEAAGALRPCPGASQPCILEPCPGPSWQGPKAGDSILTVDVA

[10] = Counterscreen for IDE inhibitors: Luminescence-based cell-based high throughput dose response assay to identify compounds that are cytotoxic to HEK cells. [Related pubchem assays: 434962 (Primary screen (IDE inhibitors in singlicate)), 449730 (Counterscreen (Cytotoxicity in triplicate)), 435028 (Confirmation (IDE inhibitors in triplicate)) …; assay type: functional; settings: HEK293
[11] = target: T2, Insulin-degrading enzyme (Homo sapiens, UniProt P14735); assay: Dose Response: Fluorescence polarization-based cell-based high throughput dose response assay for inhibitors of insulin-degrading enzyme (IDE). [Related pubchem assays: 434962 (Primary screen (IDE inhibitors in singlicate)), 449730 (Counterscreen (Cytotoxicity in triplicate)), 435028 (Confirmation (IDE inhibitors in triplicate)), 434984 (Summary …; assay type: functional
T2 sequence (P14735 whole entry): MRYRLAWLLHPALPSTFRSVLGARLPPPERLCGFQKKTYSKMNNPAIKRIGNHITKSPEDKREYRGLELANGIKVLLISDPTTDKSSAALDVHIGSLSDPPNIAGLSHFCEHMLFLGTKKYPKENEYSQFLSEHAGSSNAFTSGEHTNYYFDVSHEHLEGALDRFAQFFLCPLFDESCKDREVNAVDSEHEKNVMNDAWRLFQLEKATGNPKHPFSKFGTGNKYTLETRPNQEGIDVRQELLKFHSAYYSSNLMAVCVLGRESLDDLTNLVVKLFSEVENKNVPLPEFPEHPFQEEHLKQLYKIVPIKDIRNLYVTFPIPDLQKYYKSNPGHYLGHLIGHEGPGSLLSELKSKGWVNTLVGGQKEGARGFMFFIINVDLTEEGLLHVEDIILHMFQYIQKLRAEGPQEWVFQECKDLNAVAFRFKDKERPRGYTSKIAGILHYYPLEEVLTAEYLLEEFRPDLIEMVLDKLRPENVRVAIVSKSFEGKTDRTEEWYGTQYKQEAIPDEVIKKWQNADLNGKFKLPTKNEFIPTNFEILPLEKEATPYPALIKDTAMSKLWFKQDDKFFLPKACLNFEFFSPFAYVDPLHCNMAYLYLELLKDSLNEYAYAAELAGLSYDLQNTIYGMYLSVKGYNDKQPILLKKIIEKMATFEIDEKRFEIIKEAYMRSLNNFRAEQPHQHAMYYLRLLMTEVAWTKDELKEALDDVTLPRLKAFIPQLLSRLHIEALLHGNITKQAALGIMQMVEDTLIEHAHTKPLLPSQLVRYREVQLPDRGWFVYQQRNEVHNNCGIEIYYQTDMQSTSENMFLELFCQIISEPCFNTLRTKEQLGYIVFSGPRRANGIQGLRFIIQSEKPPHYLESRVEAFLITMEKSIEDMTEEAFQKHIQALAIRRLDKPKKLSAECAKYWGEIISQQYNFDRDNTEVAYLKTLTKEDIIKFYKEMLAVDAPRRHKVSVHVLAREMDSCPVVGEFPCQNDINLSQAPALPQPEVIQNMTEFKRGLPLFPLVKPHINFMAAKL

[12] = target: Dual specificity tyrosine-phosphorylation-regulated kinase 1A (Rattus norvegicus, UniProt Q63470); assay type: biochemical, Homo sapiens
[13] = target: C-C chemokine receptor type 6 (Homo sapiens, UniProt P51684); assay: antagonism of CCR6 beta-arrestin recruitment – cell-based, luminescent beta-arrestin readout, dose response (AID 504728); assay type: functional
C-C chemokine receptor type 6, sequence (P51684 whole entry): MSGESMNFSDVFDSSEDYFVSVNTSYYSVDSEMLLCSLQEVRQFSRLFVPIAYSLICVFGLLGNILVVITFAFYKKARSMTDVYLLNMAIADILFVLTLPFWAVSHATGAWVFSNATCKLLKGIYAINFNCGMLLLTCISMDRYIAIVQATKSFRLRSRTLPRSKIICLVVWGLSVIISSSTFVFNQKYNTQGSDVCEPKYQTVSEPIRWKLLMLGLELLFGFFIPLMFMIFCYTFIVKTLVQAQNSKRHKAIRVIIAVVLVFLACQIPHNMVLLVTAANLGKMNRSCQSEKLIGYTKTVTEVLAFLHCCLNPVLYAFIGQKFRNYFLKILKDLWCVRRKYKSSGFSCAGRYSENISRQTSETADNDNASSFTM

[14] = Luminescence Cell-Based Dose Response HTS to Identify Activators of Luciferase Translation or Activity in H4 […] Cells. [Related pubchem assays: 1829 (Project Summary), 1814 (Primary HTS)]; assay type: functional
[15] = Luminescence Cell-Based Dose Confirmation HTS to Identify Activators of 5'UTR Stem-Loop Driven Alpha-Synuclein mRNA Translation in H4 Neuroglioblastoma Cells. [Related pubchem assays: 1829 (Project Summary), 1814 (Primary HTS)]; assay type: functional
[16] = target: Beta-galactosidase (Escherichia coli, UniProt Q8VNN2); assay: detection-enzyme interference by beta-gal modulators – biochemical, E. coli enzyme, set 3, artefact control for CCR6 antagonist project, dose response (AID 504712); assay type: functional
Beta-galactosidase, sequence (Q8VNN2 whole entry): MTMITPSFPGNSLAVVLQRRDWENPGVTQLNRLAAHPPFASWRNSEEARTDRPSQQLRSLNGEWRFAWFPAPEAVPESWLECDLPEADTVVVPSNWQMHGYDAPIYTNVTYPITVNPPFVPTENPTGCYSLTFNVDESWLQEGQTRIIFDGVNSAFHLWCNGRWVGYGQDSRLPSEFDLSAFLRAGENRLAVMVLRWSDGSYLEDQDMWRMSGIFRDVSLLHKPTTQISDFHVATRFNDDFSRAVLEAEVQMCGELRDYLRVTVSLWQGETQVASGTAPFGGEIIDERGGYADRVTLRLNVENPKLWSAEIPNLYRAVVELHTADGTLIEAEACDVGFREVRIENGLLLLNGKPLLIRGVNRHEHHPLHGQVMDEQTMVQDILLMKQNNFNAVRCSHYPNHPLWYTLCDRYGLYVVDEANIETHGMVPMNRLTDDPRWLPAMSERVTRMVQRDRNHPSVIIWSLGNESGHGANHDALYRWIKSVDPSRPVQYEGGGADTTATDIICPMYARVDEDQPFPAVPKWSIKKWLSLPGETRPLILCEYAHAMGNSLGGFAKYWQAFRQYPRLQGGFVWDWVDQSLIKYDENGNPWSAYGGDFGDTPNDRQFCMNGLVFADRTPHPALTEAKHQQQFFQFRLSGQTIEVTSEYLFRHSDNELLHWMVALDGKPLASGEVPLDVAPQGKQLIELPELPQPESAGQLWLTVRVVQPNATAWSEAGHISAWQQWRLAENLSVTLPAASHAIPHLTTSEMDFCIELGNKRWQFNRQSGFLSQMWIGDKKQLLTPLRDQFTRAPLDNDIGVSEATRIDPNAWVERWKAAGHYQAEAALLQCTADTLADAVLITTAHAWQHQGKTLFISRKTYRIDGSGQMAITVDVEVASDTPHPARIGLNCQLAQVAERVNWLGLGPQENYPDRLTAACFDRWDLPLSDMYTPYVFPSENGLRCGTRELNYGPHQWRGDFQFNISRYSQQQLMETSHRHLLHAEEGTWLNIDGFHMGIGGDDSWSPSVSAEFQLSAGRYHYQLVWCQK

[17] = tested on: H4; assay: Luminescence Cell-Based Dose Response HTS to Identify Activators of 5'UTR Stem-Loop Driven Prion Protein mRNA Translation in H4 Neuroglioblastoma Cells. [Related pubchem assays: 1829 (Project Summary), 1814 (Primary HTS)]; assay type: functional; settings: Homo sapiens
[18] = tested on: Vero; assay: viability of Vero cells under compound – cytotoxicity control for flavivirus capping enzyme inhibitors (AID 588742); assay type: functional; settings: Chlorocebus sabaeus
[19] = target: Neuropeptide Y receptor type 2 (Homo sapiens, UniProt P49146); assay: Fluorescence-based cell-based high-throughput dose response assay for agonists of NPY-Y2. [Related pubchem assays: 1703 (Screening assay (CNGC inhibitors).), 1359 (Screening assay (NPY-Y2 potentiators or agonists).), 1304 (Screening assay (NPY-Y1 potentiators or agonists).), 1710 (Screening assay (NPY-Y2 agonists).), 1791 (Summary AID.)]; assay type: functional
Neuropeptide Y receptor type 2, sequence (P49146 whole entry): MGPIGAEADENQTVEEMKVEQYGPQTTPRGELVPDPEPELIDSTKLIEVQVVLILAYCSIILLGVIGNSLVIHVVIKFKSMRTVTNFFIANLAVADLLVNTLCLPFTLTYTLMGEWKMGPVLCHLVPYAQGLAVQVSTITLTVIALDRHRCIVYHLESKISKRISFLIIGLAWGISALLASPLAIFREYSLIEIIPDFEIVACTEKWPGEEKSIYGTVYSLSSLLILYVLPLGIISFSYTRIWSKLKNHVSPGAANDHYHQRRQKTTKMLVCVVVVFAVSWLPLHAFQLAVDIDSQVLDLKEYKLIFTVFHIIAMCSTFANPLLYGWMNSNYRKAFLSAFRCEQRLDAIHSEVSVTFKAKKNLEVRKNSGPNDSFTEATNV

[20] = target: Neuropeptide Y receptor type 1 (Homo sapiens, UniProt P25929); assay: Fluorescence-based counterscreen for agonists of NPY-Y2: cell-based high-throughput dose response assay for agonists of NPY-Y1.; assay type: functional
Neuropeptide Y receptor type 1, sequence (P25929 whole entry): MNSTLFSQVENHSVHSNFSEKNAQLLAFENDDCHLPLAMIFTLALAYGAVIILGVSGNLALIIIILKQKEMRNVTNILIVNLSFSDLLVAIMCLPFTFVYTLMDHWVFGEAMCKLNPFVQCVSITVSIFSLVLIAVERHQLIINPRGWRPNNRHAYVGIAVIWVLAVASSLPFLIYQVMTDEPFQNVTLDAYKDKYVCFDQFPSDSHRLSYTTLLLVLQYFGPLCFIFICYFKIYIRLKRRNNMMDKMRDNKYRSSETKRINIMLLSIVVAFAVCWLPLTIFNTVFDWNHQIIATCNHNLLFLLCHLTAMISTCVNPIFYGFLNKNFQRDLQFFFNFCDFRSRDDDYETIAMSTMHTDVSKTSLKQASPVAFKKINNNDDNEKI

[21] = tested on: HEK293; assay: Fluorescence-based counterscreen for potentiators or agonists of NPY-Y2: cell-based high-throughput dose response assay to identify inhibitors of cyclic nucleotide gated ion channel (CNGC) activity. In this assay, the parental HEK293 cell line transfected with a cyclic-nucleotide gated ion channel (CNGC)-based cAMP sensor is used to measure inhibition of isoproterenol-induced CNGC activity by test compound.; assay type: functional; settings: Homo sapiens;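 also: stimulus is 1 µM isoproterenol at EC100 plus PDE inhibitor Ro 20-1724 at 25 µM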
[22] = NIH3T3 cell viability loss – ATP luminescence, mouse fibroblasts, counter-screen, dose response (AID 2010); assay type: functional, cell-based;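 also: cells exposed to compound for about 90 hours before reading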
[23] = Trypanosoma cruzi growth suppression in host cells – NIH3T3 host cells, beta-gal luminescence, confirmation (AID 2044); assay type: functional, cell-based;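 also: intracellular parasites grown in NIH/3T3 mouse fibroblasts as host cells; luminescent beta-galactosidase reporter signal from transgenic T. cruzi replicating inside host cells; inhibitors lower the luminescence signal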
[24] = cells
[25] = target: Mothers against decapentaplegic homolog 3 (Homo sapiens, UniProt P84022); assay: blockers of Smad3 complex formation in lysate – cell lysate, secondary confirmation, chemiluminescent ELISA, HEK293 lysate, dose response (AID 1058); assay type: functional
[26] = target: Serine/threonine-protein phosphatase PP1-alpha catalytic subunit (Homo sapiens, UniProt P62136); assay: inhibition of protein phosphatase 1 activity – biochemical, fluorescence, dose response (AID 2394)
Serine/threonine-protein phosphatase PP1-alpha catalytic subunit, sequence (P62136 whole entry): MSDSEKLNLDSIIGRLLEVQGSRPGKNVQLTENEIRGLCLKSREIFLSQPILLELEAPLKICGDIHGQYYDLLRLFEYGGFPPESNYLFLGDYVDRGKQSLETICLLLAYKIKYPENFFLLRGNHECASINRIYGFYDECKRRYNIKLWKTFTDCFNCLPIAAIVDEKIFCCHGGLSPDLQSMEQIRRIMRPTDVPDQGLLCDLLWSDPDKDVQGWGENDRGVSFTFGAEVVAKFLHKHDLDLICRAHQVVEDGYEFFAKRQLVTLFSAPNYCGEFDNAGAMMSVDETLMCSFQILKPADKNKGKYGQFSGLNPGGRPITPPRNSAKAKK

[27] = target: Serine/threonine-protein phosphatase (Homo sapiens, UniProt Q9BPW0); assay: inhibition of protein phosphatase 5 activity – biochemical, fluorescence, dose response (AID 2395)
Serine/threonine-protein phosphatase, sequence (Q9BPW0 whole entry): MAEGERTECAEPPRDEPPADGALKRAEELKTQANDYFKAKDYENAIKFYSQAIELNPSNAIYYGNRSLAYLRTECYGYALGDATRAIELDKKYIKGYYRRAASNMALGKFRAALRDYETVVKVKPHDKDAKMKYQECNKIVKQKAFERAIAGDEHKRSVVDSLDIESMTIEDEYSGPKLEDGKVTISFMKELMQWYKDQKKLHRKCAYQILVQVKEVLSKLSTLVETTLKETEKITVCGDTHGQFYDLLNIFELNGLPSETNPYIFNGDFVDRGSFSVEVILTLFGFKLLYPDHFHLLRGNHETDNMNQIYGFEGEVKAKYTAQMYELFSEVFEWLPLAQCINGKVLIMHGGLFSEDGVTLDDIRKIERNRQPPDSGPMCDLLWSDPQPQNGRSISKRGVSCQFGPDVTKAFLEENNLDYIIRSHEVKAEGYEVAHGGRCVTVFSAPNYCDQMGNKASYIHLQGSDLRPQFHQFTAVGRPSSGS

[28] = tested on: HeLa; assay: viability loss in HeLa cells – cell-based, 24 h, cherry-picked samples, cytotoxicity control, dose response (AID 504726); assay type: functional; settings: Homo sapiens;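 also: potency for cytotoxicity as loss of luminescence signal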
[29] = antiviral protection against BTV-induced cell death – arbovirus, BSR cells, confirmation (AID 1250); assay type: functional;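 also: protection from viral cytopathic effect measured as cell viability by ATP luminescence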

## Oc1ccc(Cl)cc1CNCc1ccc(Cl)nc1
[1]
  EC50: 19.5 µM (not active)
[2]
  EC50: 17.5 µM (not active)

## Cc1ccc2nsnc2c1NC(=O)c1ccc(-c2cc(Cl)ccc2Cl)o1
[3]
  EC50: 14.4 µM (inconclusive)
[4]
  IC50: 4.64 µM (active)
[5]
  EC50: 3.86 µM (inconclusive)
[6]
  EC50: 5.89 µM (active)
[7]
  EC50: 6.11 µM (inconclusive)
[8]
  IC50: 18 µM (active)
[9]
  EC50: > 55.7 µM (not active)

## COc1ccc2c(Cl)c(C(=O)N/N=C3\CCCC(=O)C3)sc2c1
[10]
  IC50: 26.2 µM (not active)
[11]
  IC50: > 55.9 µM (not active)
[12]
  AC50: 1.98 µM (active)

## O=C(CSc1nccn1-c1ncc(C(F)(F)F)cc1Cl)c1ccc(Br)cc1
[13]
  IC50: > 66.6 µM (inactive)
[14]
  EC50: 233 nM (active)
[15]
  EC50: 247 nM (active)
[16]
  IC50: > 66.6 µM (inactive)
[17]
  EC50: 7.85 µM (active)

## O=S(=O)(c1cccc(NC(=S)N2CCN(c3cccc(Cl)c3)CC2)c1)C(F)F
[18]
  CC50: > 40 µM (active)
[19]
  EC50: > 35.4 µM (not active)
[20]
  EC50: > 35.4 µM (not active)
[21]
  EC50: > 35.4 µM (not active)

## CCN(CC(=O)NCc1cccs1)C(=O)c1ccc([N+](=O)[O-])o1
[22]
  EC50: > 30 µM (not active)
[23]
  EC50: < 100 nM (active)
[24]
  EC50: 47 nM (active)

## COc1ccc(C(c2cc3c(cc2O)OCO3)N2CCCCC2)c(OC)c1 (centres undefined)
[25]
  IC50: > 40 µM (not active)

## Cc1nnc(NC(=O)C2C3C=CC(O3)C2C(=O)O)s1 (centres undefined)
[26]
  IC50: > 67 µM (not active)
[27]
  IC50: > 67 µM (not active)

## Cc1cccc(Nc2nc(N)c([N+](=O)[O-])c(NCc3ccccc3)n2)c1
[28]
  AC50: 25 µM (active)

## CCOC(=O)c1cc2c(N)c(C(=O)c3ccc(Br)cc3)sc2nc1O
[29]
  IC50: 34 µM (active)
